According to the supplement of paper PMC10307832:

What was measured:
Experiment in all cases: relative viability (nuclei count vs DMSO), 5 days (fraction); higher = more cells survive
SK-MES-1 = test system: SK-MES-1
Outline: (§1)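 Five library-drug doses in √10 steps were combined with a fixed anchor-drug dose, or a single drug was given alone, by pin tool to lung cancer cell lines in 1536-well plates the day after seeding. Nuclei were stained and counted after 5 days. Relative viability is the nuclei count in treated wells over that in vehicle wells, taken as the median of duplicate plates.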

NCI-H2009 = test system: NCI-H2009
Outline: as §1

UMC-11 = test system: UMC-11
Outline: as §1

NCI-H1793 = test system: NCI-H1793
Outline: as §1

NCI-H2228 = test system: NCI-H2228
Outline: as §1

NCI-H1395 = test system: NCI-H1395
Outline: as §1

NCI-H647 = test system: NCI-H647
Outline: as §1

COR-L23 = test system: COR-L23
Outline: as §1

NCI-H1792 = test system: NCI-H1792
Outline: as §1

NCI-H1755 = test system: NCI-H1755
Outline: as §1

NCI-H2170 = test system: NCI-H2170
Outline: as §1

HCC-15 = test system: HCC-15
Outline: as §1

NCI-H838 = test system: NCI-H838
Outline: as §1

NCI-H1993 = test system: NCI-H1993
Outline: as §1

HOP-62 = test system: HOP-62
Outline: as §1

NCI-H1355 = test system: NCI-H1355
Outline: as §1

NCI-H2347 = test system: NCI-H2347
Outline: as §1

HARA = test system: HARA
Outline: as §1

COR-L 105 = test system: COR-L 105
Outline: as §1

NCI-H358 = test system: NCI-H358
Outline: as §1

NCI-H1734 = test system: NCI-H1734
Outline: as §1

Structure (SMILES): CC(=O)O[C@@]12CO[C@@H]1C[C@H](O)[C@@]1(C)C(=O)[C@H](O)C3=C(C)[C@@H](OC(=O)[C@H](O)[C@@H](NC(=O)OC(C)(C)C)c4ccccc4)C[C@@](O)([C@@H](OC(=O)c4ccccc4)[C@H]21)C3(C)C [Docetaxel] + CS(=O)(=O)N1CCN(Cc2cc3nc(-c4cccc5[nH]ncc45)nc(N4CCOCC4)c3s2)CC1 [Pictilisib] (partner 1 µM)
- relative viability (SK-MES-1; first compound 0.0002 µM): 0.303
- relative viability (SK-MES-1; first compound 0.000632 µM): 0.34
- relative viability (SK-MES-1; first compound 0.006325 µM): 0.206
- relative viability (SK-MES-1; first compound 0.02 µM): 0.119
- relative viability (NCI-H2009; first compound 0.0002 µM): 0.696
- relative viability (NCI-H2009; first compound 0.000632 µM): 0.747
- relative viability (NCI-H2009; first compound 0.002 µM): 0.447
- relative viability (NCI-H2009; first compound 0.006325 µM): 0.203
- relative viability (NCI-H2009; first compound 0.02 µM): 0.129
- relative viability (UMC-11; first compound 0.0002 µM): 0.799
- relative viability (UMC-11; first compound 0.000632 µM): 0.835
- relative viability (UMC-11; first compound 0.002 µM): 0.245
- relative viability (UMC-11; first compound 0.006325 µM): 0.226
- relative viability (UMC-11; first compound 0.02 µM): 0.136
- relative viability (NCI-H1793; first compound 0.0002 µM): 0.323
- relative viability (NCI-H1793; first compound 0.000632 µM): 0.369
- relative viability (NCI-H1793; first compound 0.002 µM): 0.279
- relative viability (NCI-H1793; first compound 0.006325 µM): 0.289
- relative viability (NCI-H1793; first compound 0.02 µM): 0.204
- relative viability (NCI-H2228; first compound 0.0002 µM): 0.291
- relative viability (NCI-H2228; first compound 0.000632 µM): 0.153
- relative viability (NCI-H2228; first compound 0.002 µM): 0.138
- relative viability (NCI-H2228; first compound 0.006325 µM): 0.18
- relative viability (NCI-H2228; first compound 0.02 µM): 0.131
- relative viability (NCI-H1395; first compound 0.0002 µM): 0.53
- relative viability (NCI-H1395; first compound 0.000632 µM): 0.617
- relative viability (NCI-H1395; first compound 0.002 µM): 0.543
- relative viability (NCI-H1395; first compound 0.006325 µM): 0.382
- relative viability (NCI-H1395; first compound 0.02 µM): 0.384
- relative viability (NCI-H647; first compound 0.0002 µM): 0.293
- relative viability (NCI-H647; first compound 0.000632 µM): 0.206
- relative viability (NCI-H647; first compound 0.002 µM): 0.138
- relative viability (NCI-H647; first compound 0.006325 µM): 0.117
- relative viability (NCI-H647; first compound 0.02 µM): 0.0727
- relative viability (COR-L23; first compound 0.0002 µM): 0.632
- relative viability (COR-L23; first compound 0.000632 µM): 0.649
- relative viability (COR-L23; first compound 0.002 µM): 0.42
- relative viability (COR-L23; first compound 0.006325 µM): 0.124
- relative viability (COR-L23; first compound 0.02 µM): 0.0817
- relative viability (NCI-H1792; first compound 0.0002 µM): 0.274
- relative viability (NCI-H1792; first compound 0.000632 µM): 0.273
- relative viability (NCI-H1792; first compound 0.002 µM): 0.178
- relative viability (NCI-H1792; first compound 0.02 µM): 0.073
- relative viability (NCI-H1755; first compound 0.0002 µM): 0.346
- relative viability (NCI-H1755; first compound 0.000632 µM): 0.306
- relative viability (NCI-H1755; first compound 0.002 µM): 0.264
- relative viability (NCI-H1755; first compound 0.006325 µM): 0.249
- relative viability (NCI-H1755; first compound 0.02 µM): 0.183
- relative viability (NCI-H2170; first compound 0.0002 µM): 0.342
- relative viability (NCI-H2170; first compound 0.000632 µM): 0.288
- relative viability (NCI-H2170; first compound 0.002 µM): 0.183
- relative viability (NCI-H2170; first compound 0.006325 µM): 0.186
- relative viability (HCC-15; first compound 0.0002 µM): 0.679
- relative viability (HCC-15; first compound 0.000632 µM): 0.491
- relative viability (HCC-15; first compound 0.002 µM): 0.226
- relative viability (NCI-H838; first compound 0.0002 µM): 0.477
- relative viability (NCI-H838; first compound 0.000632 µM): 0.473
- relative viability (NCI-H838; first compound 0.002 µM): 0.276
- relative viability (NCI-H838; first compound 0.006325 µM): 0.149
- relative viability (NCI-H838; first compound 0.02 µM): 0.116
- relative viability (NCI-H1993; first compound 0.0002 µM): 0.746
- relative viability (NCI-H1993; first compound 0.000632 µM): 0.706
- relative viability (NCI-H1993; first compound 0.002 µM): 0.729
- relative viability (NCI-H1993; first compound 0.006325 µM): 0.682
- relative viability (NCI-H1993; first compound 0.02 µM): 0.545
- relative viability (HOP-62; first compound 0.0002 µM): 0.75
- relative viability (HOP-62; first compound 0.000632 µM): 0.395
- relative viability (HOP-62; first compound 0.02 µM): 0.101
- relative viability (NCI-H1355; first compound 0.0002 µM): 0.479
- relative viability (NCI-H1355; first compound 0.000632 µM): 0.426
- relative viability (NCI-H1355; first compound 0.002 µM): 0.256
- relative viability (NCI-H1355; first compound 0.006325 µM): 0.224
- relative viability (NCI-H1355; first compound 0.02 µM): 0.179
- relative viability (NCI-H2347; first compound 0.0002 µM): 0.462
- relative viability (NCI-H2347; first compound 0.000632 µM): 0.564
- relative viability (NCI-H2347; first compound 0.002 µM): 0.696
- relative viability (NCI-H2347; first compound 0.006325 µM): 0.647
- relative viability (NCI-H2347; first compound 0.02 µM): 0.066
- relative viability (HARA; first compound 0.0002 µM): 0.211
- relative viability (HARA; first compound 0.000632 µM): 0.159
- relative viability (HARA; first compound 0.002 µM): 0.126
- relative viability (HARA; first compound 0.006325 µM): 0.0701
- relative viability (HARA; first compound 0.02 µM): 0.0659
- relative viability (COR-L 105; first compound 0.0002 µM): 0.392
- relative viability (COR-L 105; first compound 0.000632 µM): 0.37
- relative viability (COR-L 105; first compound 0.002 µM): 0.278
- relative viability (COR-L 105; first compound 0.006325 µM): 0.228
- relative viability (COR-L 105; first compound 0.02 µM): 0.294
- relative viability (NCI-H358; first compound 0.0002 µM): 0.321
- relative viability (NCI-H358; first compound 0.000632 µM): 0.34
- relative viability (NCI-H358; first compound 0.002 µM): 0.283
- relative viability (NCI-H358; first compound 0.02 µM): 0.157
- relative viability (NCI-H1734; first compound 0.0002 µM): 0.462
- relative viability (NCI-H1734; first compound 0.000632 µM): 0.387
- relative viability (NCI-H1734; first compound 0.002 µM): 0.347
- relative viability (NCI-H1734; first compound 0.006325 µM): 0.335
- relative viability (NCI-H1734; first compound 0.02 µM): 0.213
